Laboratory results published in PubChem BioAssay AID180 (DTP/NCI, 2004).
Values joined by “and” are separate entries in the source; they are usually repeats but may differ in a detail not shown here. Equal values may be shown once.

Tested on: BDF1 mice, Adenocarcinoma 755 s.c., tumor weight T/C
Test: NCI In Vivo Anticancer Drug Screen. Data for tumor model Adenocarcinoma 755 (subcutaneous) in B6D2F1 (BDF1) mice
Details: endpoint: mean tumor weight, higher = larger tumour
Outline: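 Tumor-bearing mice receive test compound while controls get vehicle alone. Antitumor effect is scored from survival or tumor dimensions as a T/C quotient.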

SMILES: Brc1ncnc2nc[nH]c12
- T/C (dose: 1.12 mg/kg/injection, schedule: Q01DX011 (ip), vehicle: carboxymethylcellulose (CMC)): 99 % of control
- T/C (dose: 2.25 mg/kg/injection, schedule: Q01DX011 (ip), vehicle: carboxymethylcellulose (CMC)): 100 % of control
- T/C (dose: 4.5 mg/kg/injection, schedule: Q01DX011 (ip), vehicle: carboxymethylcellulose (CMC)): 43 % of control
- T/C (dose: 9.0 mg/kg/injection, schedule: Q01DX011 (ip), vehicle: carboxymethylcellulose (CMC)): 50 % of control
- T/C (dose: 9.37 mg/kg/injection, schedule: Q01DX011 (ip), vehicle: carboxymethylcellulose (CMC)): 10 % of control
- T/C (dose: 18.75 mg/kg/injection, schedule: Q01DX011 (ip), vehicle: carboxymethylcellulose (CMC)): 10 % of control
- T/C (dose: 37.5 mg/kg/injection, schedule: Q01DX011 (ip), vehicle: carboxymethylcellulose (CMC)): 2 % of control
- T/C (dose: 75.0 mg/kg/injection, schedule: Q01DX011 (ip), vehicle: carboxymethylcellulose (CMC)): 1 % of control and 6 % of control
- T/C (dose: 150.0 mg/kg/injection, schedule: Q01DX011 (ip), vehicle: carboxymethylcellulose (CMC)): 6 % of control

SMILES: CC(=O)OCC(=O)[C@@]1(O)CC[C@H]2[C@@H]3CCC4=CC(=O)[C@H](C)C[C@]4(C)[C@H]3[C@@H](O)C[C@@]21C
- T/C (dose: 6.2 mg/kg/injection, schedule: Q01DX011 (sc), vehicle: steriod suspending solution): 52 % of control
- T/C (dose: 12.5 mg/kg/injection, schedule: Q01DX011 (sc), vehicle: steriod suspending solution): 43 % of control
- T/C (dose: 25.0 mg/kg/injection, schedule: Q01DX011 (sc), vehicle: steriod suspending solution): 13 % of control and 38 % of control
- T/C (dose: 50.0 mg/kg/injection, schedule: Q01DX011 (sc), vehicle: steriod suspending solution): 32 % of control
- T/C (dose: 100.0 mg/kg/injection, schedule: Q01DX011 (sc), vehicle: steriod suspending solution): 15 % of control
- T/C (dose: 400.0 mg/kg/injection, schedule: Q01DX011 (sc), vehicle: steriod suspending solution): 4 % of control

SMILES: CC(=O)N(C)c1ccccc1
- T/C (dose: 12.5 mg/kg/injection, schedule: Q01DX011 (ip), vehicle: other): 69 % of control
- T/C (dose: 25.0 mg/kg/injection, schedule: Q01DX011 (ip), vehicle: other): 88 % of control
- T/C (dose: 50.0 mg/kg/injection, schedule: Q01DX011 (ip), vehicle: other): 73 % of control
- T/C (dose: 100.0 mg/kg/injection, schedule: Q01DX011 (ip), vehicle: other): 95 % of control

SMILES: CNc1ncnc2c1ncn2C1CC(O)C(CO)O1 (centres undefined)
- T/C (dose: 60.0 mg/kg/injection, schedule: Q01DX011 (ip), vehicle: saline): 92 % of control
- T/C (dose: 120.0 mg/kg/injection, schedule: Q01DX011 (ip), vehicle: saline): 94 % of control

SMILES: NC(CS)C(=O)O (centres undefined) (tested in a mixture with another compound)
- T/C (dose: 150.0 mg/kg/injection, schedule: Q01DX011 (ip), vehicle: methylcellulose (MC)): 42 % of control
- T/C (dose: 150.0 mg/kg/injection, schedule: Q01DX011 (ip), vehicle: saline): 56 % of control and 61 % of control
- T/C (dose: 225.0 mg/kg/injection, schedule: Q01DX011 (ip), vehicle: methylcellulose (MC)): 31 % of control
- T/C (dose: 225.0 mg/kg/injection, schedule: Q01DX011 (ip), vehicle: saline): 18 % of control
- T/C (dose: 275.0 mg/kg/injection, schedule: Q01DX011 (ip), vehicle: saline): 55 % of control
- T/C (dose: 350.0 mg/kg/injection, schedule: Q01DX011 (ip), vehicle: methylcellulose (MC)): 18 % of control
- T/C (dose: 350.0 mg/kg/injection, schedule: Q01DX011 (ip), vehicle: saline): 35 % of control and 48 % of control
- T/C (dose: 500.0 mg/kg/injection, schedule: Q01DX011 (ip), vehicle: methylcellulose (MC)): 19 % of control

SMILES: NC(N)=Nc1nc2ccccc2o1
- T/C (dose: 55.0 mg/kg/injection, schedule: Q01DX011 (ip), vehicle: methylcellulose (MC)): 109 % of control
- T/C (dose: 110.0 mg/kg/injection, schedule: Q01DX011 (ip), vehicle: methylcellulose (MC)): 99 % of control
- T/C (dose: 220.0 mg/kg/injection, schedule: Q01DX011 (ip), vehicle: methylcellulose (MC)): 94 % of control
- T/C (dose: 330.0 mg/kg/injection, schedule: Q01DX011 (ip), vehicle: methylcellulose (MC)): 66 % of control
- T/C (dose: 440.0 mg/kg/injection, schedule: Q01DX011 (ip), vehicle: methylcellulose (MC)): 78 % of control
